# Patent US8846643B2, “Phosphonates with reduced toxicity for treatment of viral infections” (The Regents of the University of California, priority 2010, dated 2014)
# Like-named read-outs stand apart in the source and are kept apart here.
# Legend:
# [1] = antiviral activity and cytotoxicity of unmodified MPMPA (system not stated)
# [2] = tested on: HCV genotype 1b replicon (BM4-5); test: anti-HCV activity in genotype 1b replicon (BM4-5); type: cell-based, hepatitis C virus; conditions: for EC50: Hepatitis C virus; for Selectivity Index BM4-5 (1b): genotype 1b replicon; for anti-HCV activity (in words): HCV replication in vitro
# [3] = tested on: HCV genotype 2a replicon (JFH-1); test: anti-HCV activity in genotype 2a replicon (JFH-1); type: cell-based, hepatitis C virus; conditions: for EC50: Hepatitis C virus, read-out: EC50 (μM) JFH-1 (2a); for Selectivity Index JFH-1 (2a): genotype 2a replicon
# HIV-1 [4] = conditions: for anti-HIV activity (in words): HIV-1 infected MT-2 cells; for Selectivity Index: MT-2 cells, HIV-1
# MT-2 cells = test: cytotoxicity in MT-2 cells; conditions: MT-2 cells
# HIV-1 [5] = test: microbe, parasite or virus in culture
# Huh 7.5 cells = test: cytotoxicity (CC50) in HCV replicon cells / Huh 7.5 liver cells; conditions: cytotoxicity in replicon cells
# HIV-1NL43 = test: HIV-1 replication in human peripheral blood mononuclear cells; type: cell-based; conditions: for activity against HIV-1 in human PBMCs (in words): HIV-1 infected human PBMCs; for EC50: Human immunodeficiency virus 1, PBMC, HIV-1NL43 in human PBMCs
# [6] = cytotoxicity in human PBMCs
# Vaccinia = test: microbe, parasite or virus in culture; type: cell-based; conditions: Orthopoxvirus vaccinia
# Cowpox = test: organism not typed; type: cell-based; conditions: read-out: EC50 (μM) Cowpox
# HCMV = test: antiviral activity against HCMV, plaque reduction assay in HFF cells; type: cell-based, human cytomegalovirus; conditions: Human betaherpesvirus 5, HFF, read-out: EC50 (μM) HCMV
# HSV-1 = test: antiviral activity against HSV-1, plaque reduction assay in HFF cells; type: cell-based, herpes simplex virus, type 1; conditions: Human alphaherpesvirus 1, HFF, read-out: EC50 (μM) HSV-1
# in vitro = conditions: human, HFF fibroblasts
# [7] = cytotoxicity (CC50) in HCV replicon cells / Huh 7.5 liver cells; conditions: human, Huh 7.5 liver cells
# [8] = target: HIV-1 reverse transcriptase (Human immunodeficiency virus type 1 group M subtype B, UniProt P04585); test: HIV reverse transcriptase assay with primer-template pairs; type: biochemical; conditions: HIV-1 reverse transcriptase 50 nM, 37° C., 5 min
# Protocol: (S)-MPMPA diphosphate was prepared as described in Example 56. Radiolabeled [γ-^32P]ATP and cordycepin triphosphate ([α-^32P]3′-deoxyATP) was purchased from PerkinElmer, and unlabeled deoxynucleoside triphosphates (dNTPs) were from Fermentas. RNA oligonucleotides were purchased from Sigma.
# Oligonucleotide primer-template pairs were used as substrates for reverse transcriptase assays. Reverse transcriptase assays utilized RNA oligonucleotide templates. The primers were first end-labeled by using [γ-^32P]ATP and T4 polynucleotide kinase prior to annealing to the template strand. Various combinations of dNTPs and (S)-MPMPApp were added. […] After incubation of controls and (S)-MPMPA at 37° C. for 5 min, reaction mixtures were stopped by the addition of gel loading buffer [80% (v/v) formamide, 10 mM EDTA (pH 8.0), 1 mg/ml xylene cyanol FF, 1 mg/ml bromophenol blue]. Reaction products were resolved on 10% polyacrylamide gels and analyzed by phosphorimager analysis as previously described (Magee et al., 2005) using a Typhoon 9400 phosphorimager.).
# [9] = BM4-5, read-out: EC50 (μM) BM4-5(1b)
# [10] = Human immunodeficiency virus 1, MT2, MT-2 cells infected with HIV-1
# [11] = Human immunodeficiency virus 1, MT2
# [12] = BM4-5, read-out: EC50 values, range
smiles,measurement,setting,value
"COC[C@H](Cn1cnc2c(N)ncnc21)OCP(=O)(O)O [MPMPA, 9-(S)-[3-methoxy-2-(phosphonomethoxy)propyl]adenine]",CC50,[1]; cells not given,40 µM
same,EC50,[1]; virus and cells not stated,20 µM
"CCCCCCCCCCCCCCCCOCCCOP(=O)(O)COC(COC(C)C)Cn1cnc2c(N)ncnc21 (racemic) [Cmpd 19, hexadecyloxypropyl 9-(R,S)-[3-isopropoxy-2-(phosphonomethoxy)propyl]adenine]",EC50,[2]; [9],51.2 ± 38.2 µM
same,EC50,[3],98.8 ± 20.8 µM
same,anti-HIV activity (in words),HIV-1 [4],loss of antiviral activity
same,CC50,MT-2 cells,30.3 ± 12.5 µM
same,EC50,HIV-1 [5]; [10],> 10 µM
same,CC50,Huh 7.5 cells,100 ± 20.8 µM
"CCCCCCCCCCCCCCCCOCCCOP(=O)(O)COC(COCC)Cn1cnc2c(=O)[nH]c(N)nc21 (racemic) [Cmpd 37, Hexadecyloxypropyl (R,S)-9-[3-ethoxy-2-phosphonomethoxy)propyl]guanine]",EC50,[2]; [9],25.5 ± 10.4 µM
same,Selectivity Index BM4-5 (1b),[2],>5.88
same,EC50,[3],13.2 ± 3.45 µM
same,Selectivity Index JFH-1 (2a),[3],>11.4
same,anti-HIV activity (in words),HIV-1 [4],large loss of anti-HIV activity
same,CC50,MT-2 cells,14.9 ± 6.7 µM
same,EC50,HIV-1 [5]; [10],> 10 µM
same,CC50,Huh 7.5 cells,> 150 µM
"CCCCCCCCCCCCCCCCCCOCCOP(=O)(O)CO[C@@H](COC)Cn1cnc2c(N)nc(N)nc21 [Cmpd 24, Octadecyloxyethyl (R)-9-[(3-methoxy-2-phosphonomethoxy)propyl]2,6-diaminopurine]",EC50,[2]; [9],25.6 ± 4.23 µM
same,EC50,[3],25.8 ± 6.1 µM
same,CC50,MT-2 cells,19.7 ± 9.5 µM
same,CC50,Huh 7.5 cells,> 150 µM
CCCCCCCCCCCCCCCCOCCCOP(=O)(O)CO[C@H](COC)Cn1cnc2c(N)ncnc21 [Cmpd 17],EC50,[2]; [9],2.36 µM
same,EC50,[3],4.64 µM
same,activity against HIV-1 in human PBMCs (in words),HIV-1NL43,active and selective
same,EC50,HIV-1NL43,0.2 µM
same,anti-HIV activity (in words),HIV-1 [4],less active
same,CC50,MT-2 cells,32 ± 11 µM
same,CC50,[6],> 10 µM
same,EC50,HIV-1 [5]; [11],0.2 ± 0.26 µM
same,CC50,Huh 7.5 cells,> 150 µM
"CCCCCCCCCCCCCCCCCCOCCOP(=O)(O)CO[C@H](COC)Cn1cnc2c(N)nc(N)nc21 [Cmpd 23, Octadecyloxyethyl (S)-9-[(3-methoxy-2-phosphonomethoxy)propyl]2,6-diaminopurine]",EC50,[2]; [9],20.1 ± 1.98 µM
same,EC50,[3],21.4 ± 1.3 µM
same,CC50,MT-2 cells,18 ± 5.3 µM
same,EC50,HIV-1 [5]; [10],0.23 ± 0.15 µM
same,CC50,Huh 7.5 cells,99 ± 13.4 µM
"CCCCCCCCCCCCCCCCCCOCCOP(=O)(O)CO[C@H](COC)Cn1cnc2c(N)ncnc21 [Cmpd 15, Octadecyloxyethyl (S)-9-[(3-methoxy-2-phosphonomethoxy)propyl]adenine]",anti-HCV activity (in words),[2],potent inhibitory activity
same,EC50,[2]; [9],1.43 ± 0.38 µM
same,EC50,[3],2.38 ± 1.09 µM
same,EC50,Vaccinia; read-out: EC50 (μM) Vaccinia,18.3 ± 2.4 µM
same,EC50,Vaccinia; read-out: EC50 for vaccinia inhibition,18.3 µM
same,EC50,Cowpox,> 20 µM
same,EC50,HCMV,1.55 ± 0.4 µM
same,EC50,HSV-1,45.7 ± 10.1 µM
same,EC50,HIV-1NL43,~0.005 µM
same,anti-HIV activity (in words),HIV-1 [4],potent inhibitory activity
same,CC50,in vitro,23.8 ± 2.6 µM
same,CC50,[6],> 10 µM
same,EC50,HIV-1 [5]; [11],0.03 µM
same,CC50,[7],> 150 µM
same,CC50,Huh 7.5 cells,> 150 µM
CCCCCCCCCCCCCCCCOCCCOP(=O)(O)CO[C@H](COC)Cn1cnc2c(=O)[nH]c(N)nc21 [Cmpd 36],EC50,[2]; [9],22 ± 4.97 µM
same,EC50,[3],24.8 ± 7 µM
same,activity against HIV-1 in human PBMCs (in words),HIV-1NL43; listed as HDP-(S)-MPMPG,active and selective
same,activity against HIV-1 in human PBMCs (in words),HIV-1NL43; listed as hexadecyloxypropyl-(S)-MPMPG,submicromolar activity
same,anti-HIV activity (in words),HIV-1 [4],less active
same,CC50,MT-2 cells,29.3 ± 3.1 µM
same,CC50,[6],> 100 µM
same,EC50,HIV-1 [5]; [11],2.03 ± 0.95 µM
same,CC50,Huh 7.5 cells,> 150 µM
"CCCCCCCCCCCCCCCCOCCCOP(=O)(O)CO[C@H](COC)Cn1cnc2c(OC)nc(N)nc21 [Cmpd 44, Hexadecyloxypropyl (S)-9-[(3-methoxy-2-phosphonomethoxy)propyl]-6-O-methylguanine]",EC50,[2]; [9],18.1 ± 0.27 µM
same,EC50,[2]; [12],18 to 26 µM
same,EC50,[3],17.4 ± 0.3 µM
same,CC50,MT-2 cells,34.3 ± 7.6 µM
same,EC50,HIV-1 [5]; [11],> 10 µM
same,CC50,Huh 7.5 cells,> 150 µM
"CCCCCCCCCCCCCCCCCCOCCOP(=O)(O)CO[C@H](COC)Cn1cnc2c(=O)[nH]c(N)nc21 [Cmpd 34, Octadecyloxyethyl (S)-9-[(3-methoxy-2-phosphonomethoxy)propyl]guanine]",EC50,[2]; [9],8.26 µM
same,Selectivity Index BM4-5 (1b),[2],>18.2
same,EC50,[3],10.7 µM
same,Selectivity Index JFH-1 (2a),[3],>14.0
same,Selectivity Index,HIV-1 [4],125
same,CC50,MT-2 cells,25 ± 13 µM
same,EC50,HIV-1 [5]; [11],0.2 µM
"CCCCCCCCCCCCCCCCOCCCOP(=O)(O)CO[C@H](COC)Cn1cnc2c(OC)ncnc21 [Cmpd 43, Hexadecyloxypropyl (S)-9-[(3-methoxy-2-phosphonomethoxy)propyl]-6-methoxypurine]",EC50,[2]; [9],8.9 ± 1.22 µM
same,EC50,[2]; [12],8.9 to 12.5 µM
same,EC50,[3],12.5 ± 3.36 µM
same,CC50,MT-2 cells,22 ± 3.5 µM
same,EC50,HIV-1 [5]; [11],> 10 µM
same,CC50,Huh 7.5 cells,> 150 µM
"CCCCCCCCCCCCCCCCCCOCCOP(=O)(O)CO[C@H](COC)Cn1ccc(N)nc1=O [Cmpd 40, Octadecyloxyethyl (S)-1-[(3-methoxy-2-phosphonomethoxy)propyl]cytosine]",anti-HCV activity (in words),[2],inactive
same,EC50,[2]; [9],> 150 µM
same,EC50,[3],> 150 µM
same,activity against HIV-1 in human PBMCs (in words),HIV-1NL43,antiviral activity
same,Selectivity Index,HIV-1 [4],4.8
same,CC50,MT-2 cells,60.7 ± 16 µM
same,EC50,HIV-1 [5]; [11],12.7 µM
same,CC50,Huh 7.5 cells,> 150 µM
"CCCCCCCCCCCCCCCCOCCCOP(=O)(O)COC(COCC)Cn1cnc2c(N)nc(N)nc21 (racemic) [Cmpd 26, Hexadecyloxypropyl (R,S)-9-[3-ethoxy-2-phosphonomethoxy)propyl-2,6-diaminopurine]",EC50,[2]; [9],18.2 ± 7.09 µM
same,Selectivity Index BM4-5 (1b),[2],>8.2
same,EC50,[3],19.5 ± 1.48 µM
same,Selectivity Index JFH-1 (2a),[3],>7.69
same,anti-HIV activity (in words),HIV-1 [4],large loss of anti-HIV activity
same,CC50,MT-2 cells,30.7 ± 11.7 µM
same,EC50,HIV-1 [5]; [10],> 10 µM
same,CC50,Huh 7.5 cells,> 150 µM
COC[C@H](Cn1cnc2c(N)ncnc21)OCP(=O)(O)OP(=O)(O)OP(=O)(O)O [(S)-MPMPA diphosphate],inhibition of HIV reverse transcriptase activity (in words),[8],inhibited HIV reverse transcriptase activity by chain termination
CCCCCCCCCCCCCCCCOCCCOP(=O)(O)CO[C@H](COC)Cn1cnc2c(N)nc(N)nc21 [Cmpd 25],EC50,[2]; [9],21.3 ± 3.1 µM
same,EC50,[3],23.6 ± 2.7 µM
same,anti-HIV activity (in words),HIV-1 [4],less active
same,CC50,MT-2 cells,22.7 ± 6.8 µM
same,EC50,HIV-1 [5]; [10],4.6 ± 1.8 µM
same,CC50,Huh 7.5 cells,91.5 ± 17.8 µM
"CCCCCCCCCCCCCCCCOCCCOP(=O)(O)COC(COCC)Cn1cnc2c(N)ncnc21 (racemic) [Cmpd 18, hexadecyloxypropyl 9-(R,S)-[3-ethoxy-2-(phosphonomethoxy)propyl]adenine]",EC50,[2]; [9],7.59 µM
same,EC50,[3],8.87 µM
same,anti-HIV activity (in words),HIV-1 [4],loss of antiviral activity
same,CC50,MT-2 cells,23.6 ± 7.1 µM
same,EC50,HIV-1 [5]; [10],> 10 µM
same,CC50,Huh 7.5 cells,99 ± 0.5 µM
"CCCCCCCCCCCCCCCCCCOCCOP(=O)(O)CO[C@@H](COC)Cn1cnc2c(N)ncnc21 [Cmpd 16, Octadecyloxyethyl (R)-9-[(3-methoxy-2-phosphonomethoxy)propyl]adenine]",EC50,[2]; [9],4.65 µM
same,EC50,[3],5.33 µM
same,anti-HIV activity (in words),HIV-1 [4],considerably less active and selective
same,EC50,HIV-1 [5]; [10],4.8 ± 3 µM
same,CC50,Huh 7.5 cells,> 150 µM
"CCCCCCCCCCCCCCCCCCOCCOP(=O)(O)CO[C@@H](COC)Cn1cnc2c(=O)[nH]c(N)nc21 [Cmpd 35, Octadecyloxyethyl (R)-9-[(3-methoxy-2-phosphonomethoxy)propyl]guanine]",EC50,[2]; [9],12.6 µM
same,Selectivity Index BM4-5 (1b),[2],>11.9
same,EC50,[3],12.4 µM
same,Selectivity Index JFH-1 (2a),[3],>12.1
same,CC50,MT-2 cells,44 µM
same,EC50,HIV-1 [5]; [11],< 1e-05 µM
same,CC50,Huh 7.5 cells,> 150 µM
